Assay results published in patent US7148193B2, “Compounds that bind to growth hormone receptor” (Antyra, Inc., priority 1997, dated 2006).
Where a SMILES comes first, the peptide text is derived from it. Bridges are numbered along the chain shown (N, C = ends).

How the values were obtained:
[1] = target: T1, rat growth hormone receptor (Rattus norvegicus, UniProt P16310); assay: Cell proliferation assay (WST-1) in FDC-1 cells stably transfected with rat growth hormone receptor; format: cell-based; settings: 18 h
T1 construct: expressed in transfected cells; host or cells: FDC-1 cells
T1 sequence (P16310 19-638): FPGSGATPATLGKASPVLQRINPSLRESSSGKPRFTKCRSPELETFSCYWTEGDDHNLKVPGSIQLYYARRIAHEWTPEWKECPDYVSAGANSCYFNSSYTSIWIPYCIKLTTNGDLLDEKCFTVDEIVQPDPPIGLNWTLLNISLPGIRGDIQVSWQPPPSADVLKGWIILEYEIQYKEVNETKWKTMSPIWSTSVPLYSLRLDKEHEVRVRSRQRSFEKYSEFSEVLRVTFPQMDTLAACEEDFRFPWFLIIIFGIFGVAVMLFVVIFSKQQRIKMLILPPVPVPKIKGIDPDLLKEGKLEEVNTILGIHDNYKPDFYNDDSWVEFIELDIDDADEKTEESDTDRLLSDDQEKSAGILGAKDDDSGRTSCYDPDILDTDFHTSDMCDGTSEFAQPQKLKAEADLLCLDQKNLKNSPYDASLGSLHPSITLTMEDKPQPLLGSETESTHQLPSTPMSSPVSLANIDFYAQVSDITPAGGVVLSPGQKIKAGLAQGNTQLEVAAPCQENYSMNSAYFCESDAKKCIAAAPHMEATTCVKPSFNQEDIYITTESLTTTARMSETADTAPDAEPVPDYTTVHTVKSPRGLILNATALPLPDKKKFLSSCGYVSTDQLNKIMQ
Protocol: Cells transfected with rat GHR (50,000 cells per well) were incubated with either bovine GH, H5 peptide (SEQ ID NO:8), 447 peptide (SEQ ID NO:11) or control peptide (SEQ ID NO:10) for 18 h at 37° C. Experiments were done in triplicate. Background signal A450=0.15. […] Cells transfected with rat GHR (50,000 cells per well) containing […] bovine GH were incubated with either control peptide (SEQ ID NO:10), H5 peptide (SEQ ID NO:8) or 447 peptide (SEQ ID NO:11) for 18 h at 37° C. Proliferation was measured using WST-1 reagent. The “*” symbol corresponds to the A450 measurement for the cells incubated without GH.
Agonistic and antagonistic activities of the two peptides, H5WT (SEQ ID NO:8) and bP#447 ([…]), were tested in FDC-1 cells stably transfected with the gene encoding the rat growth hormone receptor. The resulting cell line required either IL-3 or GH for growth. The cells were grown in RPMI 1640 medium containing 10% FCS (fetal calf serum) and 20 units of IL-3 per ml. […] activity assays were performed in a total volume of 100 μl in 96 well plates (flat bottom). Cells were seeded at 50,000 cells/well in 50 μl RPMI 1640 (without IL-3) medium containing horse serum instead of FCS to reduce background. To duplicate wells, 50 μl of either growth hormone or peptides at different concentrations was added, followed by incubation for 18 h in a CO2 incubator. Assays to measure the antagonistic activity were performed in a total volume of 100 μl in 96 well plates. Either H5WT peptide (SEQ ID NO:8), bP#447 peptide (SEQ ID NO:11), or control peptide (SEQ ID NO:10) was added to cells containing 0.003 μM of bovine GH and incubated at 37° C. for 18 h in a CO2 incubator. Proliferation assays were performed using WST-1 reagent. The WST-1 tetrazolium salt (light red color) is cleaved to formazan (dark red color) by the succinate-tetrazolium reductase system, which is active only in viable cells. […] Ten microliters of WST-1 reagent was added and the plates incubated for 1–4 h 37° C. Proliferation was measured by absorbance at 450 nm.

[2] = target: T2, rGHBP (Rattus norvegicus, UniProt P16310); assay: Phage ELISA binding and competition on rGHBP coated wells
T2 construct: 1–48 of GHBP; The 3′ oligo used for this reaction encoded the mutation L43R (CTG→AGA); The second PCR reaction amplified the DNA encoding amino acids 38–260; 6xHis; made in house
T2 sequence (P16310 19-278 isoform P16310-2): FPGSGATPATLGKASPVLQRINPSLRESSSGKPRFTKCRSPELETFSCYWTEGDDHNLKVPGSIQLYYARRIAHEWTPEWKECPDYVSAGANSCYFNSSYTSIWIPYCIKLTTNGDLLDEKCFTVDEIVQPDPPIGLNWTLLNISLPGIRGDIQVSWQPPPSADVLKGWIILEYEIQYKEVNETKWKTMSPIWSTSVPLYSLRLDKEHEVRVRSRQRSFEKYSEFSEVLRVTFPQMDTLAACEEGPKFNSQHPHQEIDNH
Protocol: For analysis of individual clones, colonies were picked and phage prepared as described above. Microtiter wells were coated and blocked as described above. Wells were coated with either rGHBP or a control IgG MAb. Phage resuspended in MPBS were added to duplicate wells (100 μl/well) and incubated at room temperature for 1 hr. The phage solution was then removed, and the wells were washed three times with PBS at room temperature. Anti-M13 antibody conjugated to horseradish peroxidase (Pharmacia Biotech) was diluted 1:3000 in MPBS and added to each well (100 μl/well). Incubation was for another hour at room temperature, followed by PBS washes as described. Color was developed by addition of ABTS solution (100 μl/well; Boehringer). Color development was stopped by adjusting each well to 0.5% SDS. Plates were analyzed at 405 nm using a SpectraMax 340 plate reader (Molecular Devices) and SoftMax Pro software. Data points were averaged after subtraction of appropriate blanks. A clone was considered “positive” if the A405 of the well was >2-fold over background. […]
These clones were next analyzed for binding to the receptor's active sites (FIG. 2B). Competitions of phage binding were done both with the cognate ligand (i.e., GH) and with a specific target-neutralizing MAb 2C3 (Wang, B. S., et al. Mol. Cellular Endocrinology, vol. 116, p. 223–226, 1996).
Clones were tested for the presence of E-tag and binding to ‘hu’ GHBP, rGHBP, or BSA-coated wells. Those having specific GHBP binding (i.e., at least 2 fold greater binding to the GHBP than BSA) and with an E-tag positive signal were subjected to DNA sequencing. Three different clones were isolated and tested a second time against GHBP plus and minus GH (1 μM) or BSA (1 μM) coated wells as described. In these tests, huGH was used as competitor with ‘hu’ GHBP coated wells and bovineGH was used as a competitor with rat GHBP coated wells. […] The following open reading frame insertion including the DYKD (SEQ ID NO:79) amino terminal tag and up to the C-terminal E-tag was obtained for these clones; and is shown in Table III: […]

- antagonistic activity ([1]; cells with 0.003 μM bovine GH, at the concentrations tested): no antagonistic activity
- agonistic activity ([1]; no GH added, WST-1 A450): partial agonistic activity
- ELISA Competition, rGHBP, +BSA ([2]; ELISA signal, BSA 1 μM, phage concentrated 15×): 1.87
- ELISA Competition, rGHBP, +bGH ([2]; ELISA signal, bovine GH 1 μM, phage concentrated 15×): 0.32
- ELISA Competition, rGHBP, none ([2]; ELISA signal, no competitor, phage concentrated 15×): 1.91
- phage binding to rGHBP blocked by GH and MAb 2C3 ([2]; competition ELISA of phage binding): blocked both by GH and by MAb 2C3
Structure (SMILES): CC(C)C[C@@H]1NC(=O)[C@H](CO)NC(=O)[C@H](CCC(N)=O)NC(=O)[C@@H](NC(=O)[C@H](CC(C)C)NC(=O)[C@H](CC(=O)O)NC(=O)[C@H](CCCCN)NC(=O)[C@H](Cc2ccc(O)cc2)NC(=O)[C@@H](N)CC(=O)O)CSSC[C@@H](C(=O)N[C@@H](C)C(=O)N[C@@H](CCCCN)C(=O)N[C@@H](CCCCN)C(=O)O)NC(=O)[C@H](Cc2c[nH]c3ccccc23)NC(=O)CNC(=O)[C@H](C)NC(=O)[C@H](CC(C)C)NC(=O)[C@H](Cc2c[nH]c3ccccc23)NC(=O)CNC(=O)[C@@H]2CCCN2C(=O)[C@H](Cc2ccc(O)cc2)NC(=O)[C@H]([C@@H](C)O)NC(=O)[C@H](C(C)C)NC(=O)CNC1=O [H5] (H-DYKDLCQSLGVTYPGWLAGWCAKK-OH; disulfide 6-21; N-terminus and C-terminus assumed)
